Assay [1] has as its target T1, Proprotein convertase subtilisin/kexin type 9 (Homo sapiens, UniProt Q8NBP7). Put plainly: Inhibition of PCSK9 in human HepG2 cells assessed as increase in LDL uptake at 10 uM. It counts as cell-based.
Assay [2] deals with T1, Proprotein convertase subtilisin/kexin type 9. Put plainly: Inhibition of PCSK9 in human HepG2 cells assessed as restoration of LDLR. It counts as cell-based.
Assay [3] shares this target. As to the kind of experiment: Inhibition of PCSK9 in human HepG2 cells assessed as increase in LDL uptake. The format is cell-based.
Assay [4] has as its target T2, PCSK9/LDLR (Homo sapiens, UniProt Q8NBP7). Put plainly: Inhibition of PCSK9-LDLR (unknown origin) protein-protein interaction. It counts as protein assay.
In assay [5] the target is T1, Proprotein convertase subtilisin/kexin type 9. Put plainly: Inhibition of PCSK9 (unknown origin).
Assay [6] concerns Mus musculus. As to the kind of experiment: Hypocholesterolemic activity in C57BL/6 mouse assessed as increase in LDLR level at 30 mg/kg. It counts as functional.
Assay [7] concerns Mus musculus. As to the kind of experiment: Hypocholesterolemic activity in C57BL/6 mouse assessed as reduction in TC level at 30 mg/kg. On the set-up: scale not given: the % may be the effect or the level left. The format is functional.
Assay [8] concerns the target Proprotein convertase subtilisin/kexin type 9 (Mus musculus, UniProt Q80W65). As to the kind of experiment: Binding affinity to mouse PCSK9.
Assay [9] has as its target T1, Proprotein convertase subtilisin/kexin type 9. Put plainly: Binding affinity to human PCSK9.
Assay [10] addresses T2, PCSK9/LDLR. Put plainly: Inhibition of PCSK9-LDLR protein-protein interaction in human HepG2 cells assessed as increase in LDL uptake. It counts as cell-based.

The values below come from ChEMBL document CHEMBL5233285, “Recent Update on the Development of PCSK9 Inhibitors for Hypercholesterolemia Treatment” (J Med Chem, 2022).

The term inhibition denotes the change of the read-out against control, counted positive when it falls. By EC50 is commonly meant the concentration that produces a half-maximal response. A word on the IC50: it is the concentration that gives 50% inhibition. In general, Kd refers to the concentration at which binding is half-saturated.

T1 sequence (Q8NBP7 31-152 limits assumed): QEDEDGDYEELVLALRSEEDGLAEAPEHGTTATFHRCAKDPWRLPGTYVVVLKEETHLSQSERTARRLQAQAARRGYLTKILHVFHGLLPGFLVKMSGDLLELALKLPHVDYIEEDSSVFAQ
T1 sequence (Q8NBP7 153-692 limits assumed): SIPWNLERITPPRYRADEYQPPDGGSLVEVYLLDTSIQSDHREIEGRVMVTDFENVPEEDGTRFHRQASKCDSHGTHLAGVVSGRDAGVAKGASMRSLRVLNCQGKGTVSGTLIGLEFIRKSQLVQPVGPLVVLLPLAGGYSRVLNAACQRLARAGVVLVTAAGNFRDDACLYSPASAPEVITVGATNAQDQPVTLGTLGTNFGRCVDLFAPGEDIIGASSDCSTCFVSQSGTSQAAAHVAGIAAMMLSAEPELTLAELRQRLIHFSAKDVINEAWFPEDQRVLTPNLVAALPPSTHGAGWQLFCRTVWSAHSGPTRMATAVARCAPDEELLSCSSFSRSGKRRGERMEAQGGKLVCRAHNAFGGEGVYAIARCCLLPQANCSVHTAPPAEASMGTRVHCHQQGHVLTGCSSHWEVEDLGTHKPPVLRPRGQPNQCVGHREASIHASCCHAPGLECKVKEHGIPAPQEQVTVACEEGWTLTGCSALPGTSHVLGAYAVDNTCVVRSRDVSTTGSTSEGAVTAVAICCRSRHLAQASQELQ
T2 sequence (Q8NBP7 31-152 limits assumed): as the sequence (Q8NBP7 31-152 limits assumed) above
T2 sequence (Q8NBP7 153-692 limits assumed): as the sequence (Q8NBP7 153-692 limits assumed) above
T2 sequence (P01130 22-860 partner limits assumed): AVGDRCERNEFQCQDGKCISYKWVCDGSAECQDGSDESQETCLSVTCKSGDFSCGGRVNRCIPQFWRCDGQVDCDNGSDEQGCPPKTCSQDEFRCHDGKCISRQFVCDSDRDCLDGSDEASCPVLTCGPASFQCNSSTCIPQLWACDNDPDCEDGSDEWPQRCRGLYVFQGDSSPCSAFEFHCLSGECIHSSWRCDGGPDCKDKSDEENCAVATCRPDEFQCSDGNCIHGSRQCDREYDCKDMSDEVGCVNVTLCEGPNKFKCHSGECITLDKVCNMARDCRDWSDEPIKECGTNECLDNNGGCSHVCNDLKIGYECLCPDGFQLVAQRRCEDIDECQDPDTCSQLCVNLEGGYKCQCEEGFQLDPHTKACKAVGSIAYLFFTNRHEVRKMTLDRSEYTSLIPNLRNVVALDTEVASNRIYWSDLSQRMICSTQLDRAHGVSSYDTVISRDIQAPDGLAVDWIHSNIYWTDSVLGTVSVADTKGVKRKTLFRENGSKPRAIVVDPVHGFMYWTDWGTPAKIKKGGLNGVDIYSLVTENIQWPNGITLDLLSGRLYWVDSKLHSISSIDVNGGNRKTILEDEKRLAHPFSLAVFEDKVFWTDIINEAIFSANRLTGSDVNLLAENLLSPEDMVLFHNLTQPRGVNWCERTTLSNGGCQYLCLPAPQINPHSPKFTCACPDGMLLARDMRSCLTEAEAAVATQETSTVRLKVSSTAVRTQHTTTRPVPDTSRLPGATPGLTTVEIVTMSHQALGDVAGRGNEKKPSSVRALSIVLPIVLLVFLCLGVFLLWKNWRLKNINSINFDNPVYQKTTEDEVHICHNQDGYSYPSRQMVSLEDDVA
Proprotein convertase subtilisin/kexin type 9 (Mus musculus, UniProt Q80W65), sequence (Q80W65 35-155 limits assumed): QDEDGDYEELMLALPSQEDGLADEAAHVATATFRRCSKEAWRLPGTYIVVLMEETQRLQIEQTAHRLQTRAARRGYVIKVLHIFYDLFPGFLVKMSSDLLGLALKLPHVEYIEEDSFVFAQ
Proprotein convertase subtilisin/kexin type 9 (Mus musculus, UniProt Q80W65), sequence (Q80W65 156-694 limits assumed): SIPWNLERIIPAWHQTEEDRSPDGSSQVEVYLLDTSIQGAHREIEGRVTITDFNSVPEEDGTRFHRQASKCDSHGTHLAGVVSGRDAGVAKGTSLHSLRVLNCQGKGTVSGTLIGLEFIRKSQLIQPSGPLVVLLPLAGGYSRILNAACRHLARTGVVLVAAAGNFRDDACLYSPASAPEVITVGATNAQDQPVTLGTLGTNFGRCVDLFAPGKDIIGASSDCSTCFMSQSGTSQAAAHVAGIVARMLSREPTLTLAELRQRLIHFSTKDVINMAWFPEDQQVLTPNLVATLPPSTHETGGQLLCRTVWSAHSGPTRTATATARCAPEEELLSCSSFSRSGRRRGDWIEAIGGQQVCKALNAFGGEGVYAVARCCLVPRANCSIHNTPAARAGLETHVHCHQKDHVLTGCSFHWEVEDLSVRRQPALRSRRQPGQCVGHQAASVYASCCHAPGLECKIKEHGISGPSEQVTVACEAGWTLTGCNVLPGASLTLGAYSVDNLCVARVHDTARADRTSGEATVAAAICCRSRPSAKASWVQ

`CC(=O)N[C@H](C(=O)N[C@H](C(=O)N[C@@H](Cc1ccccc1)C(=O)N[C@H](C(=O)N[C@@H](CO)C(=O)N[C@@H](Cc1c[nH]c2ccccc12)C(=O)N[C@@H](CCC(=O)O)C(=O)N[C@@H](CCC(=O)O)C(=O)N[C@@H](Cc1ccc(O)cc1)C(=O)N[C@@H](CC(C)C)C(=O)N[C@@H](CC(=O)O)C(=O)N[C@@H](Cc1c[nH]c2ccccc12)C(=O)N[C@H](C(N)=O)C(C)C)[C@@H](C)O)C(C)C)[C@@H](C)O`: the inhibition in [1] came to 56.5%. Also, the concentration giving a half-maximal response (EC50) in assay [2] is 5 µM; in assay [3], 6 µM. Moreover, the IC50 at PCSK9/LDLR [4] was determined as 0.8 µM.
In [5], `CC(=O)N[C@H](CSCc1cn(CCCCCC(=O)NCCOCCOCCOCCOCCOCCOCCOCCOCCOCCOCCC(=O)NCCCC[C@H](NC(=O)COCCOCCOCCOCCOCCOCCOCCOCCOCCOCCNC(=O)C(N)CCCCn2cc(CSC[C@@H](NC(C)=O)C(=O)N[C@H](C(=O)N[C@H](C(=O)N[C@@H](Cc3ccccc3)C(=O)N[C@H](C(=O)N[C@@H](CO)C(=O)N[C@@H](Cc3c[nH]c4ccccc34)C(=O)N[C@@H](CCC(=O)O)C(=O)N[C@@H](CCC(=O)O)C(=O)N[C@@H](Cc3ccc(O)cc3)C(=O)N[C@@H](CC(C)C)C(=O)N[C@@H](CC(=O)O)C(=O)N[C@@H](Cc3c[nH]c4ccccc34)C(=O)N[C@H](C(=O)N[C@@H](CCCNC(=N)N)C(=O)N[C@@H](CCCNC(=N)N)C(=O)NCC(=O)O)C(C)C)[C@@H](C)O)C(C)C)[C@@H](C)O)nn2)C(=O)NCC(=O)N[C@@H](CCCNC(=N)N)C(=O)N[C@@H](CCCNC(=N)N)C(=O)N[C@@H](CCCCN)C(=O)N[C@@H](Cc2c[nH]c3ccccc23)C(N)=O)nn1)C(=O)N[C@H](C(=O)N[C@H](C(=O)N[C@@H](Cc1ccccc1)C(=O)N[C@H](C(=O)N[C@@H](CO)C(=O)N[C@@H](Cc1c[nH]c2ccccc12)C(=O)N[C@@H](CCC(=O)O)C(=O)N[C@@H](CCC(=O)O)C(=O)N[C@@H](Cc1ccc(O)cc1)C(=O)N[C@@H](CC(C)C)C(=O)N[C@@H](CC(=O)O)C(=O)N[C@@H](Cc1c[nH]c2ccccc12)C(=O)N[C@H](C(=O)N[C@@H](CCCNC(=N)N)C(=O)N[C@@H](CCCNC(=N)N)C(=O)NCC(=O)O)C(C)C)[C@@H](C)O)C(C)C)[C@@H](C)O` (stereo partly specified) displayed an IC50 of 0.23 µM.
Take `CCNC(=O)[C@@H]1CSCC(=O)N[C@@H](Cc2ccccc2)C(=O)N[C@@H](C(C)C)C(=O)N2CCC[C@H]2C(=O)N[C@@H]([C@@H](C)O)C(=O)N[C@@H]([C@@H](C)O)C(=O)N[C@@H](Cc2ccc(-c3ccccc3)cc2)C(=O)N(C)[C@@H](C)C(=O)N[C@@H](Cc2ccc(-c3ccccc3)cc2)C(=O)N(C)[C@@H](C)C(=O)N[C@@H](CCC(=O)O)C(=O)N[C@@H](C)C(=O)N2CCC[C@H]2C(=O)N1`: the results for the Activity in the assay with Mus musculus [6] and in the assay on Mus musculus [7] were 90% and 43%, respectively. The Kd was 0.021 µM in assay [8] and 0.0061 µM in assay [9]. Also, on PCSK9/LDLR [4], 0.002 µM corresponded to half-maximal inhibition (IC50). For the same molecule, at PCSK9/LDLR [10], the EC50 was found to be 0.17 µM.
